Target: T1, CYP11A1 (Homo sapiens, UniProt P05108)
T1 construct: human H295R adrenocortical carcinoma cell line was used as source of enzyme; endogenous in cells; host or cells: H295R human adrenocortical carcinoma cells
T1 sequence (P05108 40-521): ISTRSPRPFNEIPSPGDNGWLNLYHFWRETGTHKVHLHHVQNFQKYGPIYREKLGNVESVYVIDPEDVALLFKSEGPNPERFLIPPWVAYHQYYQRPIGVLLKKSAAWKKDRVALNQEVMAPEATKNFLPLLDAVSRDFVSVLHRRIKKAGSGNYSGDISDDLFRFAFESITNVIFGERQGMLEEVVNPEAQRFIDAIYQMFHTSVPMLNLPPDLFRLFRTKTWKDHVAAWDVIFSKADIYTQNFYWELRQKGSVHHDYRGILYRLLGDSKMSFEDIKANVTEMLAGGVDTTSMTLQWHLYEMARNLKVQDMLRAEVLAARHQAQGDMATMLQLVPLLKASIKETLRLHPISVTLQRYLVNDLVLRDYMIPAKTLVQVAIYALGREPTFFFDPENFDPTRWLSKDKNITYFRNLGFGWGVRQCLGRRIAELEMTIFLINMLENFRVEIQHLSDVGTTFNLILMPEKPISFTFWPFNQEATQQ
Test: CYP11A1 inhibition: modified isocaproic acid release assay (IARA) in H295R cells
Format: cell-based
Conditions: human H295R adrenocortical carcinoma cells treated three days, 3 nM [24,25-3H]-labelled cholesterol, 1% DMSO, 10 concentrations in duplicates; read-out: IC50 of the test compounds on CYP11A1 inhibition
Method in brief: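 H295R adrenocortical cells treated three days with test compounds at 10 concentrations in duplicate plus 3 nM [24,25-3H]-cholesterol, 1% DMSO final. Released radiolabelled isocaproic acid measured by scintillation counting after dextran-coated charcoal extraction; IC50 determined.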

## CS(=O)(=O)N1CCC(COc2coc(CN3Cc4ccccc4C3)cc2=O)=C(F)C1 [Compound 104, 5-((5-Fluoro-1-(methylsulfonyl)-1,2,3,6-tetrahydropyridin-4-yl)methoxy)-2-(isoindolin-2-ylmethyl)-4H-pyran-4-one]
  IC50: < 150 nM

## CS(=O)(=O)N1CCC(COc2coc(CN3Cc4ccc(Cl)cc4C3)cc2=O)CC1 [Compound 241, 2-((5-Chloroisoindolin-2-yl)methyl)-5-((1-(methylsulfonyl)piperidin-4-yl)-methoxy)-4H-pyran-4-one]
  IC50: 150 to 300 nM

## CC1c2ccccc2CN1Cc1cc(=O)c(OCc2ccc(C(=O)N(C)C)cc2)co1 (stereo not shown) [Compound 77, N,N-Dimethyl-4-(((6-((1-methylisoindolin-2-yl)methyl)-4-oxo-4H-pyran-3-yl)oxy)methyl)benzamide]
  IC50: 301 to 2000 nM

## CS(=O)(=O)NCC1CCC(COc2coc(CN3Cc4ccccc4C3)cc2=O)CC1 (stereo not shown) [Compound 173, N-((4-(((6-(Isoindolin-2-ylmethyl)-4-oxo-4H-pyran-3-yl)oxy)methyl)cyclohexyl)-methyl)methanesulfonamide]
  IC50: < 150 nM

## CN(C)C(=O)c1ccc(COc2coc(CN3CCc4cc(F)ccc4C3)cc2=O)cc1 [Compound 124, 4-(((6-((6-Fluoro-3,4-dihydroisoquinolin-2(1H)-yl)methyl)-4-oxo-4H-pyran-3-yl)oxy)methyl)-N,N-dimethylbenzamide]
  IC50: 150 to 300 nM

## Cc1ccc(S(=O)(=O)N=S(C)c2ccc(COc3coc(CN4Cc5ccccc5C4)cc3=O)cc2)cc1 (stereo not shown) [Compound 93, N-{[4-({[6-(1,3-dihydro-2H-isoindol-2-ylmethyl)-4-oxo-4H-pyran-3-yl]oxy}-methyl)phenyl](methyl)-λ^4-sulfanylidene}-4-methylbenzenesulfonamide]
  IC50: < 150 nM

## O=c1cc(CN2Cc3ccc(F)cc3C2)occ1OCc1ccc(C2(O)COC2)cc1 [Compound 115, 2-((5-Fluoroisoindolin-2-yl)methyl)-5-((4-(3-hydroxyoxetan-3-yl)benzyl)oxy)-4H-pyran-4-one]
  IC50: < 150 nM

## Cc1ccc(S(=O)(=O)N2CCN(C(=O)COc3coc(CN4Cc5ccccc5C4)cc3=O)CC2)cc1 [Compound 157, 2-(Isoindolin-2-ylmethyl)-5-(2-oxo-2-(4-tosylpiperazin-1-yl)ethoxy)-4H-pyran-4-one]
  IC50: 301 to 2000 nM

## CS(=O)(=O)c1ccc(COc2coc(CN3CCc4ccccc4C3)cc2=O)cc1 [Compound 14, 2-((3,4-Dihydroisoquinolin-2(1H)-yl)methyl)-5-((4-(methylsulfonyl)benzyl)oxy)-4H-pyran-4-one]
  IC50: 301 to 2000 nM

## CCC(=O)N1CCC(COc2coc(CN3Cc4ccccc4C3)cc2=O)CC1 [Compound 261, 2-(Isoindolin-2-ylmethyl)-5-((1-propionylpiperidin-4-yl)methoxy)-4H-pyran-4-one]
  IC50: < 150 nM

## CS(=O)(=O)C1CCC(COc2coc(CN3Cc4ccccc4C3)cc2=O)CC1 (stereo not shown) [Compound 220, 2-(Isoindolin-2-ylmethyl)-5-((4-(methylsulfonyl)cyclohexyl)methoxy)-4H-pyran-4-one]
  IC50: 150 to 300 nM

## CC(C)N(C(=O)c1ccc(COc2coc(CN3Cc4ccccc4C3)cc2=O)cc1)C(C)C [Compound 134]
  IC50: < 150 nM

## CS(=O)(=O)c1ccc(COc2coc(CN3Cc4ccc([N+](=O)[O-])cc4C3)cc2=O)cc1 [Compound 68, 5-((4-(Methylsulfonyl)benzyl)oxy)-2-((5-nitroisoindolin-2-yl)methyl)-4H-pyran-4-one]
  IC50: 150 to 300 nM

## CCS(=O)(=O)c1ccc(COc2coc(CN3Cc4ccccc4C3)cc2=O)cc1 [Compound 24, 5-((4-(Ethylsulfonyl)benzyl)oxy)-2-(isoindolin-2-ylmethyl)-4H-pyran-4-one]
  IC50: 150 to 300 nM

## CC(C)S(=N)(=O)c1ccc(COc2coc(CN3Cc4ccccc4C3)cc2=O)cc1 (stereo not shown) [Compound 103, 2-(Isoindolin-2-ylmethyl)-5-((4-(propan-2-ylsulfonimidoyl)benzyl)oxy)-4H-pyran-4-one]
  IC50: < 150 nM

## O=C(c1ccc(COc2coc(CN3Cc4ccc(F)cc4C3)cc2=O)cc1)N1CC(F)(F)C1 [Compound 161, 5-((4-(3,3-Difluoroazetidine-1-carbonyl)benzyl)oxy)-2-((5-fluoroisoindolin-2-yl)methyl)-4H-pyran-4-one]
  IC50: 150 to 300 nM

## O=C(c1ccc(COc2coc(CN3CCc4ccccc4C3)cc2=O)cc1)N1CCCC(O)C1 (stereo not shown) [Compound 149, 2-((3,4-Dihydroisoquinolin-2(1H)-yl)methyl)-5-((4-(3-hydroxypiperidine-1-carbonyl)benzyl)oxy)-4H-pyran-4-one]
  IC50: 301 to 2000 nM

## N#Cc1ccc(COc2coc(CN3Cc4ccccc4C3)cc2=O)cc1 [Compound 45, 4-(((6-(Isoindolin-2-ylmethyl)-4-oxo-4H-pyran-3-yl)oxy)methyl)benzonitrile]
  IC50: 301 to 2000 nM

## O=C(N1CCCC1)N1CCC(COc2coc(CN3Cc4ccccc4C3)cc2=O)CC1 [Compound 215, 2-(Isoindolin-2-ylmethyl)-5-((1-(pyrrolidine-1-carbonyl)piperidin-4-yl)methoxy)-4H-pyran-4-one]
  IC50: < 150 nM

## O=C(NCCCCO)c1ccc(COc2coc(CN3Cc4ccccc4C3)cc2=O)cc1 [Compound 145, N-(4-Hydroxybutyl)-4-(((6-(isoindolin-2-ylmethyl)-4-oxo-4H-pyran-3-yl)oxy)-methyl)benzamide]
  IC50: 301 to 2000 nM

## O=C(N1CCC1)N1CCC(COc2coc(CN3Cc4ccccc4C3)cc2=O)CC1 [Compound 231, 5-((1-(Azetidine-1-carbonyl)piperidin-4-yl)methoxy)-2-(isoindolin-2-ylmethyl)-4H-pyran-4-one]
  IC50: 150 to 300 nM

## O=c1cc(CN2Cc3ccccc3C2)occ1OCCCc1ccncc1 [Compound 214, 2-(Isoindolin-2-ylmethyl)-5-(3-(pyridin-4-yl)propoxy)-4H-pyran-4-one]
  IC50: 150 to 300 nM

## COC(=O)[C@H]1CC[C@H](COc2coc(CN3Cc4ccccc4C3)cc2=O)CC1 [Compound 178, Methyl (1r,4r)-4-(((6-(isoindolin-2-ylmethyl)-4-oxo-4H-pyran-3-yl)oxy)methyl)-cyclohexane-1-carboxylate]
  IC50: 301 to 2000 nM

## CCC(=O)N1CCC(COc2coc(CN3Cc4ccc(C(F)(F)F)cc4C3)cc2=O)CC1 [Compound 244a, 5-((1-Propionylpiperidin-4-yl)methoxy)-2-((5-(trifluoromethyl)isoindolin-2-yl)methyl)-4H-pyran-4-one]
  IC50: < 150 nM

## O=C(COc1coc(CN2Cc3ccccc3C2)cc1=O)N1CCN(S(=O)(=O)c2ccccc2)CC1 [Compound 156, 2-(Isoindolin-2-ylmethyl)-5-(2-oxo-2-(4-(phenylsulfonyl)piperazin-1-yl)ethoxy)-4H-pyran-4-one]
  IC50: 301 to 2000 nM

## CS(=N)(=O)c1ccc(COc2coc(CN3Cc4ccccc4C3)cc2=O)cc1 (stereo not shown) [Compound 86, 2-(Isoindolin-2-ylmethyl)-5-((4-(S-methylsulfonimidoyl)benzyl)oxy)-4H-pyran-4-one]
  IC50: 150 to 300 nM

## O=C(c1ccc(COc2coc(CN3Cc4ccc(Cl)cc4C3)cc2=O)cc1)N1CC(F)(F)C1 [Compound 163, 2-((5-Chloroisoindolin-2-yl)methyl)-5-((4-(3,3-difluoroazetidine-1-carbonyl)-benzyl)oxy)-4H-pyran-4-one]
  IC50: 150 to 300 nM

## CC1(C)c2ccccc2CN1Cc1cc(=O)c(OCC2CCN(S(C)(=O)=O)CC2)co1 [Compound 212, 2-((1,1-Dimethylisoindolin-2-yl)methyl)-5-((1-(methylsulfonyl)piperidin-4-yl)-methoxy)-4H-pyran-4-one]
  IC50: 301 to 2000 nM

Source: patent publication US11098032B2, “Pyran dervatives as CYP11A1 (cytochrome P450 monooxygenase 11A1) inhibitors” (ORION CORPORATION, priority 2016, dated 2021)
